Laboratory results from PMC9230136 (Pharmaceutics, 2022).

Assays:
HT-29 = assay: Antiproliferative assay (resazurin, 72 h); assay type: cell-based, human; settings: Homo sapiens, HT-29, mean ± SE, 72 h
Description: (§1) Colon adenocarcinoma (HT-29) and T-cell leukemia (Jurkat) cells were grown in RPMI-1640 medium (Gibco, Milano, Italy). Promyelocytic leukemia cells (HL-60), non-small cell lung carcinoma (A549), cervix carcinoma (HeLa) and breast adenocarcinoma (MDA-MB-231) cells were grown in DMEM medium (Gibco, Milano, Italy). Both media were supplemented with 115 units/mL of penicillin G (Gibco, Milano, Italy), 115 μg/mL of streptomycin (Invitrogen, Milano, Italy) and 10% fetal bovine serum (Invitrogen, Milano, Italy). All the cell lines used were purchased from the American Type Culture Collection (ATCC, Manassas, VA, USA). Stock solutions (10 mM) of the compounds were obtained by dissolving them in DMSO.
(§2) The cells were seeded in 96-well plates at the appropriate density for each cell line. After 24 h, the cells were treated by performing serial 5-fold dilutions of the tested compounds starting from a concentration of 10 μM. All experimental conditions were tested in triplicate for statistical analysis. The plates were incubated for 72 h at 37 °C in a humidified 5% CO2 atmosphere. At the end of the incubation period, 10 μL of 100 μg/mL resazurin solution was added to each well; then, the plate was re-incubated for 3–4 h. The fluorescence of the wells in each plate was monitored using a Spark 10 M spectrophotometer (Tecan Group Ltd., Mannedorf, Switzerland) with a 535 nm excitation wavelength and a 600 nm emission wavelength.

A549 = assay: Antiproliferative assay (resazurin, 72 h); assay type: cell-based, human; settings: Homo sapiens
Description: as §1, §2

MDA-MB-231 = assay: Antiproliferative assay (resazurin, 72 h); assay type: cell-based, human; settings: for IC50: Homo sapiens, MDA-MB-231, mean ± SE, 72 h
Description: as §1, §2

HeLa = assay: Antiproliferative assay (resazurin, 72 h); assay type: cell-based, human; settings: Homo sapiens, HeLa
Description: as §1, §2

Jurkat = assay: Antiproliferative assay (resazurin, 72 h); assay type: cell-based, human; settings: Homo sapiens, Jurkat, mean ± SE, 72 h
Description: as §1, §2

SMILES: COc1cc(Nc2cc(C)nc3nc(NCc4ccccc4)nn23)cc(OC)c1OC [Compound 7i, N^2-Benzyl-5-methyl-N^7-(3,4,5-trimethoxyphenyl)-[1,2,4]triazolo [1,5-a]pyrimidine-2,7-diamine]
- melting point: 173 to 175 °C
- IC50 (HT-29; Table 1): 3530 ± 140 nM
- IC50 (A549; A549, Table 1, mean ± SE): 3750 ± 260 nM
- IC50 (MDA-MB-231; Table 1): 2710 ± 310 nM
- IC50 (HeLa; Table 1, mean ± SE): 3200 ± 240 nM
- IC50 (Jurkat; Table 1): 4400 ± 380 nM

SMILES: COc1cc(Nc2cc(C)nc3nc(NCc4ccncc4)nn23)cc(OC)c1OC [Compound 7j, 5-Methyl-N^2-(pyridin-4-ylmethyl)-N^7-(3,4,5-trimethoxyphenyl)-[1,2,4]triazolo [1,5-a]pyrimidine-2,7-diamine]
- melting point: 184 to 186 °C
- IC50 (HT-29; Table 1): 2530 ± 250 nM
- IC50 (A549; A549, Table 1, mean ± SE): > 10000 nM
- IC50 (MDA-MB-231; Table 1): 59 ± 10 nM
- fold more active than 7i (MDA-MB-231; MDA-MB-231 cells): 46 fold
- IC50 (HeLa; Table 1, mean ± SE): 3010 ± 300 nM
- IC50 (Jurkat; Table 1): 9640 ± 800 nM

SMILES: COc1cc(Nc2cc(C)nc3nc(NCc4cccnc4)nn23)cc(OC)c1OC [Compound 7k, 5-Methyl-N^2-(pyridin-3-ylmethyl)-N^7-(3,4,5-trimethoxyphenyl)-[1,2,4]triazolo [1,5-a]pyrimidine-2,7-diamine]
- melting point: 178 to 180 °C
- IC50 (HT-29; Table 1): 3570 ± 480 nM
- IC50 (A549; A549, Table 1, mean ± SE): 5280 ± 650 nM
- IC50 (MDA-MB-231; Table 1): 560 ± 67 nM
- IC50 (HeLa; Table 1, mean ± SE): 2980 ± 320 nM
- IC50 (Jurkat; Table 1): 6850 ± 630 nM

SMILES: COc1cc(Nc2cc(C)nc3nc(NCc4cccc(F)c4)nn23)cc(OC)c1OC [Compound 7m, N^2-(3-Fluorobenzyl)-5-methyl-N^7-(3,4,5-trimethoxyphenyl)-[1,2,4]triazolo [1,5-a]pyrimidine-2,7-diamine]
- melting point: 176 to 178 °C
- IC50 (HT-29; Table 1): 1530 ± 160 nM
- IC50 (A549; A549, Table 1, mean ± SE): 2180 ± 310 nM
- IC50 (MDA-MB-231; Table 1): 77 ± 10 nM
- IC50 (HeLa; Table 1, mean ± SE): 930 ± 20 nM
- IC50 (Jurkat; Table 1): 5550 ± 480 nM

SMILES: COc1cc(Nc2cc(C)nc3nc(NCc4cccc(C)c4)nn23)cc(OC)c1OC [Compound 7q, 5-Methyl-N^2-(3-methylbenzyl)-N^7-(3,4,5-trimethoxyphenyl)-[1,2,4]triazolo [1,5-a]pyrimidine-2,7-diamine]
- melting point: 162 to 164 °C
- IC50 (HT-29; Table 1): 3460 ± 370 nM
- IC50 (A549; A549, Table 1, mean ± SE): 3880 ± 280 nM
- IC50 (MDA-MB-231; Table 1): 1680 ± 180 nM
- IC50 (HeLa; Table 1, mean ± SE): 1610 ± 130 nM
- IC50 (Jurkat; Table 1): 7020 ± 620 nM

SMILES: COc1cc(Nc2cc(C)nc3nc(NCc4ccccc4C)nn23)cc(OC)c1OC [Compound 7r, 5-Methyl-N^2-(2-methylbenzyl)-N^7-(3,4,5-trimethoxyphenyl)-[1,2,4]triazolo [1,5-a]pyrimidine-2,7-diamine]
- melting point: 182 to 184 °C
- IC50 (HT-29; Table 1): > 10000 nM
- IC50 (A549; A549, Table 1, mean ± SE): 1920 ± 90 nM
- IC50 (MDA-MB-231; Table 1): 2990 ± 180 nM
- IC50 (HeLa; Table 1, mean ± SE): > 10000 nM
- IC50 (Jurkat; Table 1): 4440 ± 470 nM

SMILES: COc1cccc(CNc2nc3nc(C)cc(Nc4cc(OC)c(OC)c(OC)c4)n3n2)c1 [Compound 7t, N^2-(3-Methoxybenzyl)-5-methyl-N^7-(3,4,5-trimethoxyphenyl)-[1,2,4]triazolo [1,5-a]pyrimidine-2,7-diamine]
- melting point: 150 to 152 °C
- IC50 (HT-29; Table 1): 1040 ± 80 nM
- IC50 (A549; A549, Table 1, mean ± SE): 1650 ± 140 nM
- IC50 (MDA-MB-231; Table 1): 1780 ± 150 nM
- IC50 (HeLa; Table 1, mean ± SE): 880 ± 90 nM
- IC50 (Jurkat; Table 1): 1650 ± 110 nM

SMILES: COc1ccccc1CNc1nc2nc(C)cc(Nc3cc(OC)c(OC)c(OC)c3)n2n1 [Compound 7u, N^2-(2-Methoxybenzyl)-5-methyl-N^7-(3,4,5-trimethoxyphenyl)-[1,2,4]triazolo [1,5-a]pyrimidine-2,7-diamine]
- melting point: 208 to 210 °C
- IC50 (HT-29; Table 1): > 10000 nM
- IC50 (A549; A549, Table 1, mean ± SE): > 10000 nM
- IC50 (MDA-MB-231; Table 1): 4400 ± 260 nM
- IC50 (HeLa; Table 1, mean ± SE): > 10000 nM
- IC50 (Jurkat; Table 1): > 10000 nM

SMILES: COc1ccc(CNc2nc3nc(C)cc(Nc4cc(OC)c(OC)c(OC)c4)n3n2)cc1OC [Compound 7v, N^2-(3,4-Dimethoxybenzyl)-5-methyl-N^7-(3,4,5-trimethoxyphenyl)-[1,2,4]triazolo [1,5-a]pyrimidine-2,7-diamine]
- melting point: 194 to 196 °C
- IC50 (HT-29; Table 1): > 10000 nM
- IC50 (A549; A549, Table 1, mean ± SE): 1000 ± 90 nM
- IC50 (MDA-MB-231; Table 1): 1220 ± 150 nM
- IC50 (HeLa; Table 1, mean ± SE): 560 ± 70 nM
- IC50 (Jurkat; Table 1): 1220 ± 90 nM

SMILES: COc1cc(Nc2cc(C)nc3nc(NCc4ccc(C#N)cc4)nn23)cc(OC)c1OC [Compound 7x, 4-(((5-Methyl-7-((3,4,5-trimethoxyphenyl)amino)-[1,2,4]triazolo [1,5-a]pyrimidin-2-yl)amino)methyl)benzonitrile]
- melting point: 178 to 180 °C
- IC50 (HT-29; Table 1): > 10000 nM
- IC50 (A549; A549, Table 1, mean ± SE): > 10000 nM
- IC50 (MDA-MB-231; Table 1): 1550 ± 110 nM
- IC50 (HeLa; Table 1, mean ± SE): 9010 ± 210 nM
- IC50 (Jurkat; Table 1): > 10000 nM

SMILES: COc1cc(Nc2cc(C)nc3nc(NCCc4ccccc4)nn23)cc(OC)c1OC [Compound 7z, 5-Methyl-N^2-phenethyl-N^7-(3,4,5-trimethoxyphenyl)-[1,2,4]triazolo [1,5-a]pyrimidine-2,7-diamine]
- melting point: 201 to 203 °C
- IC50 (HT-29; Table 1): 1890 ± 160 nM
- IC50 (A549; A549, Table 1, mean ± SE): 2010 ± 160 nM
- IC50 (MDA-MB-231; Table 1): 940 ± 90 nM
- IC50 (HeLa; Table 1, mean ± SE): 860 ± 100 nM
- IC50 (Jurkat; Table 1): 1990 ± 240 nM

SMILES: Cc1cc(Nc2ccc(F)c(Cl)c2)n2nc(NCc3ccc(Cl)cc3)nc2n1 [Compound 8a, N^7-(3-Chloro-4-fluorophenyl)-N^2-(4-chlorobenzyl)-5-methyl-[1,2,4]triazolo [1,5-a]pyrimidine-2,7-diamine]
- melting point: 186 to 188 °C
- IC50 (HT-29; Table 2): 340 ± 20 nM
- IC50 (A549; A549, Table 2, mean ± SE): 320 ± 60 nM
- IC50 (MDA-MB-231; Table 2): 390 ± 40 nM
- IC50 (HeLa; Table 2, mean ± SE): 190 ± 50 nM
- IC50 (Jurkat; Table 2): 500 ± 310 nM

SMILES: Cc1cc(Nc2cccc(Cl)c2)n2nc(NCc3ccc(Cl)cc3)nc2n1 [Compound 8b, N^7-(3-Chlorophenyl)-N^2-(4-chlorobenzyl)-5-methyl-[1,2,4]triazolo [1,5-a]pyrimidine-2,7-diamine]
- melting point: 158 to 160 °C
- IC50 (HT-29; Table 2): 1640 ± 220 nM
- IC50 (A549; A549, Table 2, mean ± SE): 1740 ± 130 nM
- IC50 (MDA-MB-231; Table 2): 1880 ± 80 nM
- IC50 (HeLa; Table 2, mean ± SE): 810 ± 150 nM
- IC50 (Jurkat; Table 2): 880 ± 500 nM

SMILES: C#Cc1cccc(Nc2cc(C)nc3nc(NCc4ccc(Cl)cc4)nn23)c1 [Compound 8c, N^7-(3-Ethynylphenyl)-N^2-(4-chlorobenzyl)-5-methyl-[1,2,4]triazolo [1,5-a]pyrimidine-2,7-diamine]
- melting point: 190 to 192 °C
- IC50 (HT-29; Table 2): 490 ± 60 nM
- IC50 (A549; A549, Table 2, mean ± SE): 610 ± 200 nM
- IC50 (MDA-MB-231; Table 2): 1710 ± 60 nM
- IC50 (HeLa; Table 2, mean ± SE): 420 ± 50 nM
- IC50 (Jurkat; Table 2): 500 ± 60 nM

SMILES: Cc1ccc(CNc2nc3nc(C)cc(Nc4cccc(Cl)c4)n3n2)cc1 [Compound 8e, N^7-(3-Chlorophenyl)-N^2-(4-methylbenzyl)-5-methyl-[1,2,4]triazolo [1,5-a]pyrimidine-2,7-diamine]
- melting point: 166 to 168 °C
- IC50 (HT-29; Table 2): 830 ± 3 nM
- IC50 (A549; A549, Table 2, mean ± SE): 1640 ± 370 nM
- IC50 (MDA-MB-231; Table 2): 2760 ± 550 nM
- IC50 (HeLa; Table 2, mean ± SE): 680 ± 260 nM
- IC50 (Jurkat; Table 2): 630 ± 140 nM

SMILES: Cc1cc(Nc2cccc(F)c2)n2nc(NCc3ccc4c(c3)OCO4)nc2n1 [Compound 8h, N^2-(Benzo[d][1,3]dioxol-5-ylmethyl)-N^7-(3-fluorophenyl)-5-methyl-[1,2,4]triazolo [1,5-a]pyrimidine-2,7-diamine]
- melting point: 174 to 176 °C
- IC50 (HT-29; Table 2): 9110 ± 930 nM
- IC50 (A549; A549, Table 2, mean ± SE): 2440 ± 130 nM
- IC50 (MDA-MB-231; Table 2): 9250 ± 120 nM
- IC50 (HeLa; Table 2, mean ± SE): 5880 ± 2960 nM
- IC50 (Jurkat; Table 2): 5980 ± 1580 nM

SMILES: Cc1cc(Nc2cccc(Cl)c2)n2nc(NCc3ccc4c(c3)OCO4)nc2n1 [Compound 8j, N^2-(Benzo[d][1,3]dioxol-5-ylmethyl)-N^7-(3-chlorophenyl)-5-methyl-[1,2,4]triazolo [1,5-a]pyrimidine-2,7-diamine]
- melting point: 164 to 166 °C
- IC50 (HT-29; Table 2): 2660 ± 660 nM
- IC50 (A549; A549, Table 2, mean ± SE): 2170 ± 10 nM
- IC50 (MDA-MB-231; Table 2): 4820 ± 1910 nM
- IC50 (HeLa; Table 2, mean ± SE): 960 ± 460 nM
- IC50 (Jurkat; Table 2): 1660 ± 480 nM
